target: His-tagged recombinant human Gal-3 (hGal-3) (Homo sapiens (Human), UniProt P17931); assay: Gal-3 HTRF assay (His-tagged hGal-3 binding to B-ASF); settings: read-out: hGal IC50;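 further: compounds preincubated 30 min with hGal-3, then 1 h with B-ASF, detection via terbium anti-His antibody and streptavidin d2. Control with B-ASF counts as full signal, omitting B-ASF as background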
Sequence (P17931 whole entry): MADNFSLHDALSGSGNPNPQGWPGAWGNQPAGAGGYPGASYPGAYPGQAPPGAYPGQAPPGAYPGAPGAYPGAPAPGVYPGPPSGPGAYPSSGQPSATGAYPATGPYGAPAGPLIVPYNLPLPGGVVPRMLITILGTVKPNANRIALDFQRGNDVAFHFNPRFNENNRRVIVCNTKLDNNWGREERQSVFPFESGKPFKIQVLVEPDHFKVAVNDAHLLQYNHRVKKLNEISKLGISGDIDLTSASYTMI

Compared with Cc1nc([C@@H]2O[C@H](CO)[C@H](O)[C@H](n3cc(-c4ccc(Cl)c(F)c4F)nn3)[C@H]2O)n(-c2cc(Cl)ccc2C2CC2)n1 [Example A44], Cc1nc([C@@H]2O[C@H](CO)[C@H](O)[C@H](n3cc(-c4ccc(Cl)c(F)c4F)nn3)[C@H]2O)n(-c2cc(Cl)ccc2Cl)n1 [Example A72] is 13-fold lower in IC50: 140 nM for the first, 11 nM for the second. The second is the more potent here.

Compared with Cc1nc([C@@H]2O[C@H](CO)[C@H](O)[C@H](n3cc(-c4cc(F)c(Cl)c(F)c4)nn3)[C@H]2O)n(-c2cc(Cl)c(F)cc2Cl)n1 [Example A46], Cc1nc([C@@H]2O[C@H](CO)[C@H](O)[C@H](n3cc(-c4cc(F)c(Cl)c(F)c4)nn3)[C@H]2O)n(-c2cc(Cl)c(Cl)cc2Cl)n1 [Example A53] is 1.8-fold higher in IC50: 33 nM for the first, 58 nM for the second.

Cc1nc([C@@H]2O[C@H](CO)[C@H](O)[C@H](n3cc(-c4ccc(Cl)c(F)c4)nn3)[C@H]2O)n(-c2cc(Cl)c(F)cc2Cl)n1 [Example A47] and Cc1nc([C@@H]2O[C@H](CO)[C@H](O)[C@H](n3cc(-c4ccc(Cl)c(F)c4)nn3)[C@H]2O)n(-c2cc(Cl)cc(F)c2Cl)n1 [Example A48] are within 1.5-fold of each other in IC50: 54 nM for the first, 47 nM for the second.

Cc1nc([C@@H]2O[C@H](CO)[C@H](O)[C@H](n3cc(-c4cc(F)c(Cl)c(F)c4)nn3)[C@H]2O)n(-c2cc(Cl)cc(F)c2Cl)n1 [Example A49] and Cc1nc([C@@H]2O[C@H](CO)[C@H](O)[C@H](n3cc(-c4cc(F)c(Cl)c(F)c4)nn3)[C@H]2O)n(-c2cc(Cl)ccc2C(F)F)n1 [Example A60] are within 1.5-fold of each other in IC50: 46 nM for the first, 36 nM for the second.

Cc1nc([C@@H]2O[C@H](CO)[C@H](O)[C@H](n3cc(-c4ccc(F)c(Cl)c4)nn3)[C@H]2O)n(-c2cc(Cl)ccc2C(F)(F)F)n1 [Example A50] and Cc1nc([C@@H]2O[C@H](CO)[C@H](O)[C@H](n3cc(-c4ccc(Cl)cc4F)nn3)[C@H]2O)n(-c2cc(Cl)ccc2C(F)(F)F)n1 [Example A52] are the same in IC50: 52 nM for the first, 52 nM for the second.

First: Cc1nc([C@@H]2O[C@H](CO)[C@H](O)[C@H](n3cc(-c4cc(F)c(Cl)c(Cl)c4)nn3)[C@H]2O)n(-c2cc(Cl)ccc2Cl)n1 [Example A54]
Second: Cc1nc([C@@H]2O[C@H](CO)[C@H](O)[C@H](n3cc(-c4cc(F)c(Cl)c(Cl)c4)nn3)[C@H]2O)n(-c2cc(Cl)ccc2C(F)(F)F)n1 [Example A55]
The IC50 of the first is 2.4-fold higher: 48 nM for the first, 20 nM for the second. The second is the more potent here.

Cc1nc([C@@H]2O[C@H](CO)[C@H](O)[C@H](n3cc(-c4ncc(Cl)cc4F)nn3)[C@H]2O)n(-c2cc(Cl)ccc2C(F)(F)F)n1 [Example A59] and Cc1nc([C@@H]2O[C@H](CO)[C@H](O)[C@H](n3cc(-c4ncc(Cl)cc4Cl)nn3)[C@H]2O)n(-c2cc(Cl)ccc2C(F)(F)F)n1 [Example A62] are within 1.5-fold of each other in IC50: 158 nM for the first, 172 nM for the second.

Cc1nc([C@@H]2O[C@H](CO)[C@H](O)[C@H](n3cc(-c4ccc(Br)c(F)c4)nn3)[C@H]2O)n(-c2cc(Cl)ccc2C(F)F)n1 [Example A61] and Cc1nc([C@@H]2O[C@H](CO)[C@H](O)[C@H](n3cc(-c4ccc(Br)c(F)c4)nn3)[C@H]2O)n(-c2cc(Cl)cnc2C(F)(F)F)n1 [Example A71] are the same in IC50: 49 nM for the first, 49 nM for the second.

First: Cc1nc([C@@H]2O[C@H](CO)[C@H](O)[C@H](n3cc(-c4ccc5ncsc5c4)nn3)[C@H]2O)n(-c2cc(Cl)ccc2C(F)(F)F)n1 [Example A63]
Second: Cc1nc([C@@H]2O[C@H](CO)[C@H](O)[C@H](n3cc(-c4ccc5scnc5c4)nn3)[C@H]2O)n(-c2cc(Cl)ccc2C(F)(F)F)n1 [Example A65]
The IC50 of the first is 3.3-fold higher: 291 nM for the first, 87 nM for the second.

COc1ccc(C(F)(F)F)c(-n2nc(C)nc2[C@@H]2O[C@H](CO)[C@H](O)[C@H](n3cc(-c4cc(F)c(Cl)c(F)c4)nn3)[C@H]2O)c1 [Example A64] and Cc1nc([C@@H]2O[C@H](CO)[C@H](O)[C@H](n3cc(-c4c(F)cc(Cl)cc4F)nn3)[C@H]2O)n(-c2cc(Cl)ccc2C(F)(F)F)n1 [Example A69] are within 1.5-fold of each other in IC50: 42 nM for the first, 56 nM for the second.

Compared with Cc1nc([C@@H]2O[C@H](CO)[C@H](O)[C@H](n3cc(-c4ccc5nccnc5c4)nn3)[C@H]2O)n(-c2cc(Cl)ccc2C(F)(F)F)n1 [Example A66], COc1cc(-c2cn([C@H]3[C@@H](O)[C@@H](CO)O[C@@H](c4nc(C)nn4-c4cc(Cl)ccc4C(F)(F)F)[C@@H]3O)nn2)ccc1Cl [Example A79] is 5.2-fold lower in IC50: 208 nM for the first, 40 nM for the second.

Going from Cc1nc([C@@H]2O[C@H](CO)[C@H](O)[C@H](n3cc(-c4cc(F)c(F)c(F)c4)nn3)[C@H]2O)n(-c2cc(Cl)c(F)cc2Cl)n1 [Example A67] to Cc1nc([C@@H]2O[C@H](CO)[C@H](O)[C@H](n3cc(-c4ccc(Cl)c(F)c4F)nn3)[C@H]2O)n(-c2cc(Cl)ccc2Br)n1 [Example A73], the IC50 falls from 39 nM to 10 nM (3.9-fold).

Going from Cc1nc([C@@H]2O[C@H](CO)[C@H](O)[C@H](n3cc(-c4cc(F)c5ncccc5c4)nn3)[C@H]2O)n(-c2cc(Cl)ccc2C(F)(F)F)n1 [Example A68] to Cc1nc([C@@H]2O[C@H](CO)[C@H](O)[C@H](n3cc(-c4cc(F)c5ccccc5c4)nn3)[C@H]2O)n(-c2ccc3ncsc3c2)n1 [Example A70], the IC50 falls from 154 nM to 15 nM (10-fold). The second is the more potent here.

Molecule CO[C@@H]1[C@@H](n2cc(-c3ccc(Br)c(F)c3)nn2)[C@@H](O)[C@@H](CO)O[C@H]1c1nc(C)nn1-c1ccc2ncsc2c1 [Example A75] has an IC50 of 340 nM.

From patent publication US11267811B2, “Small molecule inhibitors of galectin-3” (BRISTOL-MYERS SQUIBB COMPANY, priority 2017, dated 2022)
